Measurements published in the NIST ThermoML archive (doi:10.1016/j.jct.2016.09.036).
Numbers after ± are expanded uncertainties.

Tests used:
[1] = for mass density: 298.15 K, 101.33 kPa
[2] = Molar enthalpy of transition or fusion; conditions: Crystal 1; DSC

**Q.** Which results are given for O=C(NC[C@H]1CN(c2ccc(N3CCOCC3=O)cc2)C(=O)O1)c1ccc(Cl)s1 [Rivaroxaban]?
**A.** mass density ([1]; Crystal 1, Pycnometric method): 1517.1 ± 2.1 kg/m3; mass density ([1]; Crystal 1, X-ray diffraction): 1516.7 ± 7.4 kg/m3; mass density ([1]; Metastable crystal, Pycnometric method): 1355.3 ± 2.1 kg/m3; mass density ([1]; Metastable crystal, X-ray diffraction): 1362.9 ± 25 kg/m3; Triple point temperature ([1]; Crystal 1, DSC): 501.41 ± 7.8 K; Molar enthalpy of transition or fusion [2]: 11.2 ± 0.502 kcal/mol
